Measurements published in PMC5591945, “Novel Protein-Protein Inhibitor Based Approach to Control Plant Ethylene Responses: Synthetic Peptides for Ripening Control” (Frontiers in Plant Science, 2017).

Experiments:
tomato fruits = conditions: 2007, cited from earlier work; for ripening, lycopene synthesis and chlorophyll breakdown: AVG inhibits ethylene biosynthesis, 1-MCP inhibits ethylene response, ref Saltveit, 2005, Passam et al.; for drawbacks on fruit quality and maturation: in some cases, ref Passam et al.
Description: Improving shelf life and nutritional quality of tomato fruits is difficult to achieve with the methods currently in use. Maintaining adequate storage conditions is expensive and might cause chilling injury if used improperly ([[…] et al., 2007]). Even though genetic modifications reducing gene expression of proteins involved in ethylene synthesis are possible in principle ([Abano and Buah, 2015]) these procedures are banned by law throughout Europe and have low acceptance among European consumers. Chemical methods such as application of AVG to inhibit ethylene biosynthesis or treatment with ...

[1] = test system: Tomato fruits (Solanum lycopersicum L.) of the cultivar ‘Lyterno’; conditions: in vivo
Description: Tomato fruits (Solanum lycopersicum L.) of the cultivar ‘Lyterno’ (Rijk Zwaan, De Lier, Netherlands) were harvested at the maturity stage “green” (USDA; 2005) from tomato plants which where cultivated in a commercial-like greenhouse at the research station Campus Klein-Altendorf (University of Bonn, Germany). At the early development stages, the trusses were manually thinned to six fruits per truss, according to the common practice aiming standardized fruit size and quality. For the experiment, the last two fruits of the fourth truss, counted from the bottom, were chosen for evaluations. At the beginning of the experiment, […] showing similar color and size were divided into four treatments (n = 25 fruits per treatment). On each fruit, a transparent polyethylene film was placed at the equatorial zone to demark the four evaluation points of 2.8 cm diameter each.
The four treatments were as follows: (1) control; (2) NOP-1, 400 μM; (3) NOP-1, 1000 μM; (4) NOP-1, 2000 μM. The NOP-1 peptide (GenScript, Piscataway, NJ, United States) was dissolved in 5 ml deionized water. On each fruit, a total of 200 microdroplets (0.5 μL each) of the peptide solution were gently deposited (50 micro droplets on each marked area of the tomato fruit) with a Hamilton microdispenser (Hamilton Bonaduz AG, Bonaduz, Switzerland). […]

[2] = biological target: T1, tomato ethylene receptor NR (NeverRipe) (tomato (Solanum lycopersicum), UniProt Q41341 1-635, labeled with Alexa Fluor 488-Maleimide); assay: MST; 100 nM receptor labeled with Alexa Fluor 488-Maleimide titrated with unlabeled NOP-1 (500 μM to 61.04 nM) in 50 mM Tris-HCl pH 8.0, 300 mM NaCl; Monolith NT.115, 20% MST power (LeETR4) or 60% (NR); triplicate; apparent Kd; conditions: both partners purified
T1 construct: Tomato ethylene receptor NR (NeverRipe), full-length codon optimized cDNA in pET16b; pET16b normally adds the deca-histidine tag and a factor Xa site at the N-terminus (surmised); Kept in 0.015% FosCholine-16; source: E. coli BL21 (DE3), solubilized with FosCholine-16, purified (HisTrap FF / Ni-NTA)
T1 sequence (looked up): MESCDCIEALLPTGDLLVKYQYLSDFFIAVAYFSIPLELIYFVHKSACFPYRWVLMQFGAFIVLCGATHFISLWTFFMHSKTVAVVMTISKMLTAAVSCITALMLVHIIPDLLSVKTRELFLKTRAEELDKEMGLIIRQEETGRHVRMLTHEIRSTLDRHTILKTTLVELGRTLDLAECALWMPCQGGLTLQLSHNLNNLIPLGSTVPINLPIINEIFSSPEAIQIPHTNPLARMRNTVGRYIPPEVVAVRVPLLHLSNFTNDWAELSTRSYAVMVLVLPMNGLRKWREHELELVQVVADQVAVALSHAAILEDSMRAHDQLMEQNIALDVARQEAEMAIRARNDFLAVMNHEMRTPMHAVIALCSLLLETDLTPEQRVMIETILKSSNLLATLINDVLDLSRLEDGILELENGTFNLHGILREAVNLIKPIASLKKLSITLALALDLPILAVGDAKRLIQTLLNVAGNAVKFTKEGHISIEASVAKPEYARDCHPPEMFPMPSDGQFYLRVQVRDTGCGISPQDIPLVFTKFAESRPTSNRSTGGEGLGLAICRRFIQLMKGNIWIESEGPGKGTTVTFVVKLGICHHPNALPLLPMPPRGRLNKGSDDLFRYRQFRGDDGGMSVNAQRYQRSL

[3] = biological target: tomato ethylene receptor LeETR4 (tomato (Solanum lycopersicum)) (UniProt Q9XET8); assay: as above

NCCO/C=C/[C@H](N)C(=O)O [AVG, aminoethoxyvinylglycine]
ripening, lycopene synthesis and chlorophyll breakdown (tomato fruits): significantly delay ripening and slow down lycopene synthesis and chlorophyll breakdown
drawbacks on fruit quality and maturation (tomato fruits): quality losses in taste development or to complete arrest in maturation

CC(C)C[C@H](NC(=O)[C@H](CCCNC(=N)N)NC(=O)[C@H](CCCNC(=N)N)NC(=O)[C@H](CCCCN)NC(=O)[C@H](Cc1ccc(O)cc1)NC(=O)[C@H](CCCNC(=N)N)NC(=O)[C@H](CCCCN)NC(=O)[C@@H](N)CC(C)C)C(=O)O [NOP-1]
effect on fruit quality [1]: no negative effects on fruit quality

CC1=CC1 [1-MCP, 1-methylcyclopropene]
ripening, lycopene synthesis and chlorophyll breakdown (tomato fruits): significantly delay ripening and slow down lycopene synthesis and chlorophyll breakdown
drawbacks on fruit quality and maturation (tomato fruits): quality losses in taste development or to complete arrest in maturation

B1: NOP-1 octapeptide (peptide)
peptide: LKRYKRRL
notes: Used unlabeled in MST; also called NLS-derived peptide; source: synthetic peptide (GenScript)
Kd [2]: 23.5 µM
Kd [3]: 4.15 µM
